Key:
foxtail, giant = assay: Test A preemergence; assay type: in vivo, Setaria faberii; settings: preemergence
In short: (§1)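 Visual injury ratings, 0 = no effect to 100 = complete control, taken about 10 days after treatment against untreated controls. Test chemicals, in a non-phytotoxic surfactant-containing solvent, were sprayed onto soil preemergence or onto one- to two-leaf plants (2–10 cm) postemergence, in loam–sand soil under greenhouse conditions.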

pigweed [1] = assay: Test A preemergence; assay type: in vivo, Amaranthus retroflexus; settings: preemergence
In short: as §1

corn [2] = assay: Test A preemergence; assay type: in vivo, Zea mays; settings: preemergence
In short: as §1

wheat [3] = assay: Test A postemergence; assay type: in vivo, Triticum aestivum
In short: as §1

wheat [4] = assay: Test C preemergence; assay type: in vivo, Triticum aestivum; settings: preemergence; for Plant response rating, Wheat: 125 g ai/ha, scale 0 to 100, 0 = no effect, 100 = complete control
In short: (§2)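 Seeds sown in loam–sand blend and treated preemergence with test chemicals in non-phytotoxic solvent with surfactant; postemergence plants in peat-based medium, treated at 2–18 cm (1- to 4-leaf stage). Greenhouse 13 to 15 days, then visual rating versus controls, 0 (no effect) to 100 (complete control).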

corn [5] = assay: Test C preemergence; assay type: in vivo, Zea mays; settings: preemergence; for Plant response rating, Corn: 125 g ai/ha, scale 0 to 100, 0 = no effect, 100 = complete control
In short: as §2

crabgrass, large = assay: Test C preemergence; assay type: in vivo, Digitaria sanguinalis; settings: preemergence; for Plant response rating, Crabgrass, Large: 125 g ai/ha, scale 0 to 100, 0 = no effect, 100 = complete control
In short: as §2

johnsongrass = assay: Test C preemergence; assay type: in vivo, Sorghum halepense; settings: preemergence; for Plant response rating, Johnsongrass: 125 g ai/ha, scale 0 to 100, 0 = no effect, 100 = complete control
In short: as §2

morningglory = assay: Test C preemergence; assay type: in vivo, Ipomoea coccinea; settings: preemergence; for Plant response rating, Morningglory: 125 g ai/ha, scale 0 to 100, 0 = no effect, 100 = complete control
In short: as §2

pigweed [6] = assay: Test C preemergence; assay type: in vivo, Amaranthus retroflexus; settings: preemergence; for Plant response rating, Pigweed: 125 g ai/ha, scale 0 to 100, 0 = no effect, 100 = complete control
In short: as §2

barnyardgrass = assay: Test C preemergence; assay type: in vivo, Echinochloa crus-galli; settings: preemergence; for Plant response rating, Barnyardgrass: 125 g ai/ha, scale 0 to 100, 0 = no effect, 100 = complete control
In short: as §2

waterhemp = assay: Test C preemergence; assay type: in vivo, Amaranthus rudis; settings: preemergence; for Plant response rating, Waterhemp: 125 g ai/ha, scale 0 to 100, 0 = no effect, 100 = complete control
In short: as §2

velvetleaf = assay: Test C preemergence; assay type: in vivo, Abutilon theophrasti; settings: preemergence; for Plant response rating, Velvetleaf: 125 g ai/ha, scale 0 to 100, 0 = no effect, 100 = complete control
In short: as §2

[7] = 125 g ai/ha, visual injury, 0 to 100 scale, approx. 10 days
[8] = 500 g ai/ha, visual injury after approx. 10 days, 0 to 100 scale (0 no effect, 100 complete control)
[9] = Postemergence, 500 g ai/ha, 0 to 100 scale (0 no effect, 100 complete control)
[10] = postemergence, 125 g ai/ha, about 10 days, visual rating on 0 to 100 scale (0 no effect, 100 complete control)
[11] = 31 g ai/ha, visual rating, scale 0 to 100 (0 no effect, 100 complete control), 13 to 15 days
[12] = 62 g ai/ha, scale 0 to 100 (0 no effect, 100 complete control), 13 to 15 days
[13] = 250 g ai/ha, scale 0 to 100, 0 is no effect, 100 is complete control

CCc1cc(C(=O)NC(C)C)nn1Cc1ccnc(C(F)(F)F)c1 [Compound 139]
Foxtail, Giant plant response rating (foxtail, giant; [7]): 100 | Foxtail, Giant plant response rating (foxtail, giant; [8]): 100 | Pigweed plant response rating (pigweed [1]; [7]): 100 | Pigweed plant response rating (pigweed [1]; [8]): 100 | Corn plant response rating (corn [2]; [7]): 30 | Corn plant response rating (corn [2]; [8]): 90 | Wheat plant response rating (wheat [3]; [9]): 90 | Wheat plant response rating (wheat [3]; [10]): 50 | Wheat plant response rating (wheat [4]; [11]): 30 | Wheat plant response rating (wheat [4]; [12]): 85 | Plant response rating, Wheat (wheat [4]; 13 to 15 days): 85 | Wheat plant response rating (wheat [4]; [13]): 90 | Corn plant response rating (corn [5]; [11]): 25 | Corn plant response rating (corn [5]; [12]): 30 | Plant response rating, Corn (corn [5]; 13 to 15 days): 85 | Corn plant response rating (corn [5]; [13]): 80 | Crabgrass, Large plant response rating (crabgrass, large; [11]): 100 | Crabgrass, Large plant response rating (crabgrass, large; [12]): 100 | Plant response rating, Crabgrass, Large (crabgrass, large; 13 to 15 days): 100 | Crabgrass, Large plant response rating (crabgrass, large; [13]): 100 | Johnsongrass plant response rating (johnsongrass; [11]): 10 | Johnsongrass plant response rating (johnsongrass; [12]): 70 | Plant response rating, Johnsongrass (johnsongrass; 13 to 15 days): 85 | Johnsongrass plant response rating (johnsongrass; [13]): 98 | Morningglory plant response rating (morningglory; [11]): 5 | Morningglory plant response rating (morningglory; [12]): 35 | Plant response rating, Morningglory (morningglory; 13 to 15 days): 98 | Morningglory plant response rating (morningglory; [13]): 98 | Pigweed plant response rating (pigweed [6]; [11]): 55 | Pigweed plant response rating (pigweed [6]; [12]): 90 | Plant response rating, Pigweed (pigweed [6]; 13 to 15 days): 90 | Pigweed plant response rating (pigweed [6]; [13]): 100 | Barnyardgrass plant response rating (barnyardgrass; 31 g ai/ha, scale 0 to 100 (0 no effect, 100 complete control), 13 to 15 days): 40 | Barnyardgrass plant response rating (barnyardgrass; [12]): 98 | Plant response rating, Barnyardgrass (barnyardgrass; 13 to 15 days): 100 | Barnyardgrass plant response rating (barnyardgrass; [13]): 100 | Waterhemp plant response rating (waterhemp; [11]): 85 | Waterhemp plant response rating (waterhemp; [12]): 100 | Plant response rating, Waterhemp (waterhemp; 13 to 15 days): 100 | Waterhemp plant response rating (waterhemp; [13]): 100 | Velvetleaf plant response rating (velvetleaf; [11]): 0 | Velvetleaf plant response rating (velvetleaf; [12]): 10 | Plant response rating, Velvetleaf (velvetleaf; 13 to 15 days): 95 | Velvetleaf plant response rating (velvetleaf; [13]): 100

O=C(NCC(F)(F)F)c1cc(CCCl)n(Cc2ccnc(C(F)(F)F)c2)n1 [Compound 143]
Foxtail, Giant plant response rating (foxtail, giant; [7]): 100 | Foxtail, Giant plant response rating (foxtail, giant; [8]): 100 | Pigweed plant response rating (pigweed [1]; [7]): 100 | Pigweed plant response rating (pigweed [1]; [8]): 100 | Corn plant response rating (corn [2]; [7]): 50 | Corn plant response rating (corn [2]; [8]): 80 | Wheat plant response rating (wheat [3]; [9]): 80 | Wheat plant response rating (wheat [3]; [10]): 60 | Wheat plant response rating (wheat [4]; [11]): 40 | Wheat plant response rating (wheat [4]; [12]): 60 | Plant response rating, Wheat (wheat [4]; 13 to 15 days): 80 | Wheat plant response rating (wheat [4]; [13]): 85 | Corn plant response rating (corn [5]; [11]): 40 | Corn plant response rating (corn [5]; [12]): 75 | Plant response rating, Corn (corn [5]; 13 to 15 days): 90 | Corn plant response rating (corn [5]; [13]): 95 | Crabgrass, Large plant response rating (crabgrass, large; [11]): 100 | Crabgrass, Large plant response rating (crabgrass, large; [12]): 100 | Plant response rating, Crabgrass, Large (crabgrass, large; 13 to 15 days): 100 | Crabgrass, Large plant response rating (crabgrass, large; [13]): 100 | Johnsongrass plant response rating (johnsongrass; [11]): 70 | Johnsongrass plant response rating (johnsongrass; [12]): 85 | Plant response rating, Johnsongrass (johnsongrass; 13 to 15 days): 95 | Johnsongrass plant response rating (johnsongrass; [13]): 95 | Morningglory plant response rating (morningglory; [11]): 100 | Morningglory plant response rating (morningglory; [12]): 100 | Plant response rating, Morningglory (morningglory; 13 to 15 days): 100 | Morningglory plant response rating (morningglory; [13]): 100 | Pigweed plant response rating (pigweed [6]; [11]): 100 | Pigweed plant response rating (pigweed [6]; [12]): 100 | Plant response rating, Pigweed (pigweed [6]; 13 to 15 days): 100 | Pigweed plant response rating (pigweed [6]; [13]): 100 | Barnyardgrass plant response rating (barnyardgrass; [11]): 75 | Barnyardgrass plant response rating (barnyardgrass; [12]): 100 | Plant response rating, Barnyardgrass (barnyardgrass; 13 to 15 days): 100 | Barnyardgrass plant response rating (barnyardgrass; [13]): 100 | Waterhemp plant response rating (waterhemp; [11]): 98 | Waterhemp plant response rating (waterhemp; [12]): 98 | Plant response rating, Waterhemp (waterhemp; 13 to 15 days): 100 | Waterhemp plant response rating (waterhemp; [13]): 100 | Velvetleaf plant response rating (velvetleaf; [11]): 100 | Velvetleaf plant response rating (velvetleaf; [12]): 98 | Plant response rating, Velvetleaf (velvetleaf; 13 to 15 days): 100 | Velvetleaf plant response rating (velvetleaf; [13]): 100

Reference: patent US20150105252A1, “SUBSTITUTED PYRAZOLES AS HERBICIDES” (E I DU PONT DE NEMOURS AND COMPANY, priority 2013, published 2015)
